According to patent publication US20090291156A1, “HERBAL COMPOSITION FOR SKIN CARE” (SAGITTARIUS LIFE SCIENCE CORP., priority 2008, published 2009):

How the values were obtained:
[1] = system: dermal fibroblast collagen and glycosaminoglycan synthesis; test: Stimulation of dermal fibroblast collagen and glycosaminoglycan synthesis (Sirius red, Safranin O, Alcian blue staining); format: cell-based, Human
Method: Human foreskin dermal fibroblasts were cultured in DMEM+10% FCS+Penicillin G (100 unit/ml)/Streptomycin (100 ug/ml)+Glutamine (2 mM)+Sodium pyruvate (0.1 mM) (C-medium) under humidifying atmosphere containing 5% CO2 at 37° C.
5×10^4 cells were plated into each well of 48 multiwell plate. Three to four days later, the cells reached confluency. The medium was replaced with fresh C-medium with or without H2O2 containing 25 ug/ml vitamin C with herbal preparations, Genistein or vitamin A. After treatment for 7 days, the cells were fixed with 10% formalin in saline, and stained with Sirius red, Safranin O or Alcian blue (at pH2.5 for hyaluronic acid staining). The relative amount of extracellular matrix deposition was estimated by visual comparison of the intensity and area of the respective stains.
At the end of treatments, the cells were washed twice with PBS, and were irradiated by UV (365 nm) at 20 mJ/cm^2 in PBS. Fresh serum free medium was replaced, and the cells were fixed and stained 24 hours later.

[2] = Radical scavenging activity examined by DPPH; format: biochemical; conditions: 0.1 mM DPPH, 30 minutes
Method: Herbal preparations with the designated final concentrations was mixed with 0.1 mM DPPH (2,2-diphenyl-1-picrylhydrazyl), incubated at room temperature in dark for 30 minutes. Absorbance at 517 nm was read by Varian Cary 50 Tablet UV-Visible Spectrophotometer. Vitamin C and vitamin E served as positive controls.

**Q.** Which “activity on collagen and glycosaminoglycan synthesis (words, FIG. 2)” value ([1]; 1 μM, in the presence of 0.05 mM H2O2) does the source give for Vitamin A here?
**A.** Its value is “did not show significant activity”.

**Q.** And the “activity on collagen and glycosaminoglycan synthesis compared to control (words, FIG. 1)” value ([1]; 1 μM, without H2O2)?
**A.** The value was “did not show significant activity”.

**Q.** What about the “effect on collagen and glycosaminoglycan synthesis (words, Table 5)” value ([1]; 10 μM, UV 365 nm at 20 mJ/cm^2) of the same molecule?
**A.** The value was “did not show significant effect”.

**Q.** And the “effect on collagen and glycosaminoglycan synthesis (words, Table 4)” value ([1]; 10 μM, no UV)?
**A.** Its value is “did not show significant effect”.

**Q.** Which “% DPPH radical scavenging” value ([2]; 0.01 mM) does the source give for vitamin E [Vit. E] here?
**A.** Its value is 70.1%.

**Q.** What about the “% DPPH radical scavenging” value ([2]; 0.1 mM) of the same molecule?
**A.** The value was 86.8%.

**Q.** What does the source list for `O=C1O[C@H]([C@@H](O)CO)C(O)=C1O` [Vit. C, Vitamin C]?
**A.** % DPPH radical scavenging ([2]; 0.001 mM): 75.0%; % DPPH radical scavenging ([2]; 0.01 mM): 99.3%

**Q.** For `O=c1c(-c2ccc(O)cc2)coc2cc(O)cc(O)c12` [Genistein], which “effect on collagen and glycosaminoglycan synthesis (words, Table 3)” value ([1]; 10 μM, in the presence of 0.1 mM H2O2) is on record?
**A.** Its value is “did not show significant effect”.

**Q.** What about the “effect on collagen and glycosaminoglycan synthesis (words, Table 2)” value ([1]; 10 uM, without H2O2) of the same molecule?
**A.** Its value is “did not show significant effect”.
